≈ marks a conversion by molar mass, not a printed value. Like-named read-outs stand apart in the source and are kept apart here.
What was measured:
[1] = ester bond, chlorobenzene
[2] = tested on: E. coli MP-4; experiment: Broth dilution MIC determination (CLSI), E. coli MP-4; type: cell-based; details: strain MP-4, broth dilution; for MIC: Escherichia coli, MP4, read-out: MIC E. coli MP-4
[3] = tested on: K. pneumoniae MP-546; experiment: Broth dilution MIC determination (CLSI), K. pneumoniae MP-546; type: cell-based; details: strain MP-546, broth dilution; for MIC: Klebsiella pneumoniae, MP546
[4] = tested on: S. aureus MP-12; experiment: Broth dilution MIC determination (CLSI), S. aureus MP-12; type: cell-based; details: strain MP-12, broth dilution; for MIC: Staphylococcus aureus, MP12
[5] = tested on: P. aeruginosa MP-3; experiment: Broth dilution MIC determination (CLSI), P. aeruginosa MP-3; type: cell-based; details: strain MP-3, broth dilution; for MIC: Pseudomonas aeruginosa, MP3
[6] = tested on: A. baumannii MP-15; experiment: Broth dilution MIC determination (CLSI), A. baumannii MP-15; type: cell-based; details: strain MP-15, broth dilution; for MIC: Acinetobacter baumannii, MP15, read-out: MIC A. baumanii MP-15
[7] = tested on: K. pneumoniae MP-648; experiment: Broth dilution MIC determination (CLSI), K. pneumoniae MP-648; type: cell-based; details: strain MP-648, broth dilution; for MIC: Klebsiella pneumoniae, MP648

Row | MIC [2] | MIC [3] | MIC [4] | MIC [5] | MIC [6] | MIC [7] | MIC S. aureus MP-12 [4] | MIC P aeruginosa MP-3 [5] | MIC A. baumanii MP-15 [6] | SMILES | ring closure, yield of all isomers ([1]; from CO[C@](C)(C[C@@H](C)CN(C(=O)OCc1ccccc1)[C@@H](CO)C1CCN(C(=O)OC(C)(C)C)CC1)[C@H](O[C@@H]1O[C@H](C)C[C@H](N(C)C)[C@H]1OC(=O)c1ccccc1)[C@@H](C)C1=C(C)C(=O)OC(C)(C)O1, 3.15 mM, 148.0 °C, 23.0 h) | ring closure, yield of all isomers ([1]; from CO[C@](C)(C[C@@H](C)CN(C)[C@@H](CO)c1ccc(Br)cc1)[C@H](O[C@@H]1O[C@H](C)C[C@H](N(C)C)[C@H]1OC(=O)c1ccccc1)[C@@H](C)C1=C(C)C(=O)OC(C)(C)O1, 4.0 mM, 165.0 °C, 20.0 h) | MIC E. coli MP-4 [2] | MIC K. pneumoniae MP-546 [3] | MIC K. pneumoniae MP-648 [7]
1 | – | – | – | – | – | – | – | – | – | CO[C@]1(C)C[C@@H](C)CN(C(=O)OCc2ccccc2)[C@H](C2CCN(C(=O)OC(C)(C)C)CC2)COC(=O)[C@H](C)C(=O)[C@H](C)[C@H]1O[C@@H]1O[C@H](C)C[C@H](N(C)C)[C@H]1OC(=O)c1ccccc1 | 29% | – | – | – | –
2 | – | – | – | – | – | – | – | – | – | CO[C@]1(C)C[C@@H](C)CN(C)[C@H](c2ccc(Br)cc2)COC(=O)C(C)C(=O)[C@H](C)[C@H]1O[C@@H]1O[C@H](C)C[C@H](N(C)C)[C@H]1OC(=O)c1ccccc1 (some centres unmarked) | – | 99% | – | – | –
3 | < 4 µg/mL | < 4 µg/mL | 4 to 32 µg/mL (≈ 6.25 to 50 µM) | > 32 µg/mL | > 32 µg/mL | 4 to 32 µg/mL (≈ 6.25 to 50 µM) | – | – | – | CO[C@]1(C)C[C@@H](C)CN(C)[C@H](C2CN(CC3CCCO3)C2)COC(=O)C(C)(C)C(=O)[C@H](C)[C@H]1O[C@@H]1O[C@H](C)C[C@H](N(C)C)[C@H]1O (stereo partly drawn) [Compound 164, (3R,6R,8R,9R,10R)-9-(((2S,3R,4S,6R)-4-(dimethylamino)-3-hydroxy-6-methyltetrahydro-2H-pyran-2-yl)oxy)-8-methoxy-4,6,8,10,12,12-hexamethyl-3-(1-((tetrahydrofuran-2-yl)methyl)azetidin-3-yl)-1-oxa-4-azacyclotridecane-11,13-dione] | – | – | – | – | –
4 | < 4 µg/mL | 4 to 32 µg/mL (≈ 6.54 to 52.3 µM) | > 32 µg/mL | > 32 µg/mL | > 32 µg/mL | 4 to 32 µg/mL (≈ 6.54 to 52.3 µM) | – | – | – | CCN(C)[C@H]1C[C@@H]([C@@H]2COC(=O)C(C)(C)C(=O)[C@H](C)[C@@H](O[C@@H]3O[C@H](C)C[C@H](N(C)C)[C@H]3O)[C@](C)(OC)C[C@@H](C)CN2C)C1 [Compound 165, (3R,6R,8R,9R,10R)-9-(((2S,3R,4S,6R)-4-(dimethylamino)-3-hydroxy-6-methyltetrahydro-2H-pyran-2-yl)oxy)-3-((1s,3S)-3-(ethyl(methyl)amino)cyclobutyl)-8-methoxy-4,6,8,10,12,12-hexamethyl-1-oxa-4-azacyclotridecane-11,13-dione] | – | – | – | – | –
5 | < 4 µg/mL | 4 to 32 µg/mL (≈ 6 to 48 µM) | 4 to 32 µg/mL (≈ 6 to 48 µM) | > 32 µg/mL | > 32 µg/mL | > 32 µg/mL | – | – | – | CO[C@]1(C)C[C@@H](C)CN(C)[C@H](C2CN(C(=O)[C@H]3CCN(C)C3)C2)COC(=O)C(C)(C)C(=O)[C@H](C)[C@H]1O[C@@H]1O[C@H](C)C[C@H](N(C)C)[C@H]1O [Compound 168, (3R,6R,8R,9R,10R)-9-(((2S,3R,4S,6R)-4-(dimethylamino)-3-hydroxy-6-methyltetrahydro-2H-pyran-2-yl)oxy)-8-methoxy-4,6,8,10,12,12-hexamethyl-3-(1-((S)-1-methylpyrrolidine-3-carbonyl)azetidin-3-yl)-1-oxa-4-azacyclotridecane-11,13-dione] | – | – | – | – | –
6 | 4 to 32 µg/mL (≈ 6.18 to 49.5 µM) | 4 to 32 µg/mL (≈ 6.18 to 49.5 µM) | 4 to 32 µg/mL (≈ 6.18 to 49.5 µM) | > 32 µg/mL | > 32 µg/mL | > 32 µg/mL | – | – | – | CO[C@]1(C)C[C@@H](C)CN(C)[C@H](C2CN(Cc3ccncc3)C2)COC(=O)C(C)(C)C(=O)[C@H](C)[C@H]1O[C@@H]1O[C@H](C)C[C@H](N(C)C)[C@H]1O [Compound 176, (3R,6R,8R,9R,10R)-9-(((2S,3R,4S,6R)-4-(dimethylamino)-3-hydroxy-6-methyltetrahydro-2H-pyran-2-yl)oxy)-8-methoxy-4,6,8,10,12,12-hexamethyl-3-(1-(pyridin-4-ylmethyl)azetidin-3-yl)-1-oxa-4-azacyclotridecane-11,13-dione] | – | – | – | – | –
7 | 4 to 32 µg/mL (≈ 6.17 to 49.4 µM) | 4 to 32 µg/mL (≈ 6.17 to 49.4 µM) | 4 to 32 µg/mL (≈ 6.17 to 49.4 µM) | > 32 µg/mL | > 32 µg/mL | > 32 µg/mL | – | – | – | CO[C@]1(C)C[C@@H](C)CN(C)[C@H](C2CN(Cc3cncnc3)C2)COC(=O)C(C)(C)C(=O)[C@H](C)[C@H]1O[C@@H]1O[C@H](C)C[C@H](N(C)C)[C@H]1O [Compound 177, (3R,6R,8R,9R,10R)-9-(((2S,3R,4S,6R)-4-(dimethylamino)-3-hydroxy-6-methyltetrahydro-2H-pyran-2-yl)oxy)-8-methoxy-4,6,8,10,12,12-hexamethyl-3-(1-(pyrimidin-5-ylmethyl)azetidin-3-yl)-1-oxa-4-azacyclotridecane-11,13-dione] | – | – | – | – | –
8 | < 4 µg/mL | 4 to 32 µg/mL (≈ 5.63 to 45 µM) | > 32 µg/mL | > 32 µg/mL | > 32 µg/mL | 4 to 32 µg/mL (≈ 5.63 to 45 µM) | – | – | – | CO[C@]1(C)C[C@@H](C)CN(C)[C@H](C2CN(C(=O)CCCN(C)CC(C)C)C2)COC(=O)C(C)(C)C(=O)[C@H](C)[C@H]1O[C@@H]1O[C@H](C)C[C@H](N(C)C)[C@H]1O [Compound 178, (3R,6R,8R,9R,10R)-9-(((2S,3R,4S,6R)-4-(dimethylamino)-3-hydroxy-6-methyltetrahydro-2H-pyran-2-yl)oxy)-3-(1-(4-(isobutyl(methyl)amino)butanoyl)azetidin-3-yl)-8-methoxy-4,6,8,10,12,12-hexamethyl-1-oxa-4-azacyclotridecane-11,13-dione] | – | – | – | – | –
9 | 4 to 32 µg/mL (≈ 6.13 to 49 µM) | > 32 µg/mL | 4 to 32 µg/mL (≈ 6.13 to 49 µM) | > 32 µg/mL | > 32 µg/mL | > 32 µg/mL | – | – | – | CO[C@]1(C)C[C@@H](C)CN(C)[C@H](C2CN(C(=O)[C@H]3CCNC3)C2)COC(=O)C(C)(C)C(=O)[C@H](C)[C@H]1O[C@@H]1O[C@H](C)C[C@H](N(C)C)[C@H]1O [Compound 181, (3R,6R,8R,9R,10R)-9-(((2S,3R,4S,6R)-4-(dimethylamino)-3-hydroxy-6-methyltetrahydro-2H-pyran-2-yl)oxy)-8-methoxy-4,6,8,10,12,12-hexamethyl-3-(1-((S)-pyrrolidine-3-carbonyl)azetidin-3-yl)-1-oxa-4-azacyclotridecane-11,13-dione] | – | – | – | – | –
10 | < 4 µg/mL | 4 to 32 µg/mL (≈ 5.74 to 45.9 µM) | 4 to 32 µg/mL (≈ 5.74 to 45.9 µM) | > 32 µg/mL | > 32 µg/mL | 4 to 32 µg/mL (≈ 5.74 to 45.9 µM) | – | – | – | CO[C@]1(C)C[C@@H](C)CN(C)[C@H](C2CN(C(=O)CC(C)(C)CN(C)C)C2)COC(=O)C(C)(C)C(=O)[C@H](C)[C@H]1O[C@@H]1O[C@H](C)C[C@H](N(C)C)[C@H]1O [Compound 183, (3R,6R,8R,9R,10R)-3-(1-(4-(dimethylamino)-3,3-dimethylbutanoyl)azetidin-3-yl)-9-(((2S,3R,4S,6R)-4-(dimethylamino)-3-hydroxy-6-methyltetrahydro-2H-pyran-2-yl)oxy)-8-methoxy-4,6,8,10,12,12-hexamethyl-1-oxa-4-azacyclotridecane-11,13-dione] | – | – | – | – | –
11 | – | – | – | – | – | – | + (values greater than 32 mg/L) | + (values greater than 32 mg/L) | + (values greater than 32 mg/L) | CO[C@]1(C)C[C@@H](C)CN(C)[C@H](C2CC(N(C)CC(C)C)C2)COC(=O)C(C)(C)C(=O)[C@H](C)[C@H]1O[C@@H]1O[C@H](C)C[C@H](N(C)C)[C@H]1O (stereo partly drawn) [Compound 187, (3R,6R,8R,9R,10R)-9-(((2S,3R,4S,6R)-4-(dimethylamino)-3-hydroxy-6-methyltetrahydro-2H-pyran-2-yl)oxy)-3-((1S,3S)-3-(isobutyl(methyl)amino)cyclobutyl)-8-methoxy-4,6,8,10,12,12-hexamethyl-1-oxa-4-azacyclotridecane-11,13-dione] | – | – | +++ (values less than or equal to 4 mg/L) | +++ (values less than or equal to 4 mg/L) | ++ (values of greater than 4 mg/L and less than or equal to 32 mg/L)
